Literature values, collected in patent US20140004043A1, “CRYPTOPHANE DERIVATIVES AND METHODS OF USE THEREOF” (Georgetown Univeristy, priority 2010, published 2014).
Like-named read-outs stand apart in the source and are kept apart here.

Conditions: cited from earlier work

| Compound | binding constant with xenon Ka (293 K in 1,1,2,2-tetrachloroethane-d2 (TCE-d2)) | Ka, association constant for xenon binding (TCE-d2, 293 K) | Ka, association constant for xenon binding (TCE-d2, 278 K (footnote d)) | binding constant Ka of the xenon complex (organic solution, 278K) |
| --- | --- | --- | --- | --- |
| c1cc2c3cc1OCOc1ccc4c(c1)Cc1ccc5cc1Cc1ccc(cc1C4)OCOc1ccc(c(c1)Cc1ccc(cc1C2)OCO5)C3 (racemic) [Cryptophane 1, (±)-cryptophane-1,1,1] | ~10,000 M^−1 | 10000 M⁻¹ | – | – |
| COc1cc2c3cc1OCCOc1cc4c(cc1OC)Cc1cc5c(OC)cc1Cc1cc(c(OC)cc1C4)OCCOc1cc(c(cc1OC)C3)Cc1cc(OC)c(cc1C2)OCCO5 [A (or 222), (±)-cryptophane-A] | – | – | 3300^d | 3900 M⁻¹ |
